# Literature values in PMC7674238 (Accounts of chemical research, 2020).
# Read-outs that look alike come from different tables or passages of the source.
# Legend:
# [1] = system: vancomycin-resistant S. aureus (VRSA) strain VRS-2; settings: for dose-dependent bactericidal effect, rank order (relative to 2 h baseline): n=5/dose
# VanA VRE [2] = system: VanA VRE
# [3] = mice, iv
# VanA VRE [4] = settings: 10 μM
# [5] = mice
# D-Ala-D-Lac = D-Ala-D-Lac vs D-Ala-D-Ala
# VanA VRE [6] = settings: vancomycin-resistant organisms
Structure (SMILES),"dose-dependent bactericidal effect, rank order (relative to 2 h baseline) [1]",resistance development on 50-day serial exposure (VanA VRE [2]),"reduction in bacteria count ([1]; VanA VRSA, VRS2, without dosing optimization)",AUC ([3]; 10 mg/kg),CL ([3]; 10 mg/kg),Cmax ([3]; 10 mg/kg),Vd ([3]; 10 mg/kg),t1/2 ([3]; 10 mg/kg),AUC ([3]; 50 mg/kg (MTD)),CL ([3]; 50 mg/kg (MTD)),Cmax ([3]; 50 mg/kg (MTD)),Vd ([3]; 50 mg/kg (MTD)),t1/2 ([3]; 50 mg/kg (MTD)),induction of bacteria cell permeabilization (VanA VRE [4]),Maximum tolerated dose (MTD) ([5]; iv),tolerability [5],loss in binding affinity between vancomycin and its target (D-Ala-D-Lac),loss in antimicrobial activity (resistance) (VanA VRE [6])
CC(=O)NC[C@H]1CN(c2ccc(N3CCOCC3)c(F)c2)C(=O)O1 [linezolid],32 > 26 ≥ 16 > linezolid > 1,–,–,–,–,–,–,–,–,–,–,–,–,–,–,–,–,–
"CN[C@H](CC(C)C)C(=O)N[C@H]1C(=O)N[C@@H](CC(N)=O)C(=O)N[C@H]2C(=O)NC3C(=O)N[C@H](C(=O)N[C@H](C(=O)NCCC[N+](C)(C)C)c4cc(O)cc(O)c4-c4cc3ccc4O)[C@H](O)c3ccc(c(Cl)c3)Oc3cc2cc(c3OC2OC(CO)C(O)[C@H](O)[C@@H]2O[C@H]2CC(C)(NCc3ccc(-c4ccc(Cl)cc4)cc3)[C@H](O)[C@H](C)O2)Oc2ccc(cc2Cl)[C@H]1O (stereo partly shown) [compound 26, C1-CBP-vancomycin]",–,much more muted changes in potency,~3 log10,81.1 µg·h/mL,2 mL/min/kg,14100 ng/mL,1.25 L/kg,7.0 h,430 µg·h/mL,2 mL/min/kg,58900 ng/mL,1.04 L/kg,6.2 h,more significant,≥ 50 mg/kg,well tolerated in mice,–,–
"CN[C@H](CC(C)C)C(=O)N[C@H]1C(=O)N[C@@H](CC(N)=O)C(=O)N[C@H]2C(=O)N[C@H]3C(=O)N[C@H](C(=O)N[C@H](C(=O)O)c4cc(O)cc(O)c4-c4cc3ccc4O)[C@H](O)c3ccc(c(Cl)c3)Oc3cc2cc(c3O[C@@H]2O[C@H](CO)[C@@H](O)[C@H](O)[C@H]2O[C@H]2C[C@](C)(N)[C@H](O)[C@H](C)O2)Oc2ccc(cc2Cl)[C@H]1O [compound 1, vancomycin]",32 > 26 ≥ 16 > linezolid > 1,–,–,–,–,–,–,–,–,–,–,–,–,–,–,–,1000 fold,1000 fold
